In data set [1] the test system is PC3 (Human prostate cancer cells). Nature of the data set: Resazurin cell viability assay, PC3. As to conditions: 72 h, read-out: IC50 (Mean ± SEM, µM), PC3. It counts as cell-based. The procedure: (§1) Exponentially growing cells were seeded in 96-well plates and allowed to attach and grow for 24 h. The cells were then treated with increasing concentrations of the tested drugs. At the end of the treatment period, cell viability was measured with the MTT assay or the resazurin assay, two widely used techniques.
(§2) The resazurin assay is a redox-based colorimetric/fluorometric technique based on the ability of viable cells to reduce the blue compound resazurin into the pink, fluorescent and soluble product resorufin. The amount of resorufin produced is generally proportional to the number of living cells. In this assay, 24 h after seeding, cells were exposed to the tested drugs for 72 h. Then 100 μL resazurin in medium was added to each well (final concentration of 10 μg/mL) and, one hour later the fluorescence intensity was measured at 530/590 nm (excitation/emission) using a fluorescence microplate reader.
(§3) In both assays, cell viability was expressed as percentage compared to untreated cells. Results were expressed as the means ± standard error of the mean (SEM). All data are from at least three independent experiments.
A general note: Resazurin is reduced to fluorescent resorufin, in cell work by metabolically active cells.

Data set [2] concerns HepG2 (Human hepatocellular carcinoma cells). Put plainly: Resazurin cell viability assay, HepG2. The note with it: 72 h, read-out: IC50 (Mean ± SEM, µM), HepG2. It counts as cell-based. The procedure: as §1, §2, §3
Data set [3] has as its system U2OS (Human osteosarcoma cells). Nature of the data set: Resazurin cell viability assay, U2OS. It counts as cell-based. As to conditions: 72 h, read-out: IC50 (Mean ± SEM, µM), U2OS. The procedure:
as §1, §2, §3

Data set [4] has as its system MRC-5 (Human lung non-malignant cells). Nature of the data set: Resazurin cell viability assay, MRC-5. It counts as cell-based. The note with it: MRC5, 72 h, read-out: IC50 (Mean ± SEM, µM), MRC-5. As for the experimental part:
as §1, §2, §3

Data set [5] has as its system cancer cell lines versus MRC-5 and VH10 normal cell lines. Put plainly: Resazurin assay, panel of cancer cells versus normal cells. It counts as cell-based, human. As to conditions: 72 h. As for the experimental part:
as §1, §2, §3
Next, we evaluated the cytotoxic activity of AzGalp in cancer cell lines derived from solid tumors (HeLa, PC3, U2OS, HepG2 and SW480) and from hematological malignancies (NB4 and HL-60). To study the selectivity against cancer cells, MRC-5 and VH10 cells were used as normal cell lines; 5-FU was used as a positive control. All cells were treated with AzGalp or 5-FU for 72 h and cell viability was evaluated with the resazurin assay. This assay was used to determine cell viability instead of the MTT assay because the HL60 and NB4 cell lines grow in suspension. […] Leukemia cell lines were approximately 15 times more sensitive than normal cells to the cytotoxicity of our aziridine.

The test system of data set [6] is SW480 (Human colon adenocarcinoma cells). Nature of the data set: Resazurin cell viability assay, SW480. The note with it: 72 h, read-out: IC50 (Mean ± SEM, µM), SW480. It counts as cell-based. The procedure: as §1, §2, §3
The subject of data set [7] is BJ-hTERT (hTERT-immortalized skin non-malignant BJ cells). Nature of the data set: Resazurin cell viability assay, BJ-hTERT. It counts as cell-based. The note with it: Homo sapiens, 72 h, read-out: IC50 (Mean ± SEM, µM), BJ-hTERT. The procedure: as §1, §2, §3
Data set [8] has as its system NB4 (Human acute promyelocytic leukemia cells). Put plainly: Resazurin cell viability assay, NB4. It counts as cell-based. As to conditions: 72 h, read-out: IC50 (Mean ± SEM, µM), NB4. As for the experimental part:
as §1, §2, §3

Data set [9] concerns BJ-RASV12 (HRASV12-transformed BJ-SV40T cells). Put plainly: Resazurin cell viability assay, BJ-RASV12. It counts as cell-based, human. The note with it: 72 h. As for the experimental part: as §1, §2, §3
The test system of data set [10] is HeLa (Human cervical carcinoma cells). Put plainly: Resazurin cell viability assay, HeLa. It counts as cell-based. The note with it: 72 h, read-out: IC50 (Mean ± SEM, µM), HeLa. The procedure: as §1, §2, §3
Data set [11] has as its system VH10 (Human skin non-malignant cells). Put plainly: Resazurin cell viability assay, VH10. As to conditions: 72 h, read-out: IC50 (Mean ± SEM, µM), VH10. It counts as cell-based. As for the experimental part: as §1, §2, §3
In data set [12] the test system is HL-60 (Human acute promyelocytic leukemia cells). Nature of the data set: Resazurin cell viability assay, HL-60. It counts as cell-based. The note with it: 72 h, read-out: IC50 (Mean ± SEM, µM), HL-60. The procedure: as §1, §2, §3
The test system of data set [13] is BJ-SV40T (SV40T-transformed BJ-hTERT cells). Put plainly: Resazurin cell viability assay, BJ-SV40T. It counts as cell-based. As to conditions: Homo sapiens, 72 h, read-out: IC50 (Mean ± SEM, µM), BJ-SV40T. As for the experimental part:
as §1, §2, §3

Data set [14] relates to A549 cells. Put plainly: Glycolysis inhibition (glucose consumed, lactate produced). It counts as cell-based, human. The note with it: A549, 8 h. The procedure: Inhibition of glycolysis was determined by measuring glucose consumed (initial product of glycolysis) and lactate produced (final product of glycolysis) in untreated and treated cells. Cells were seeded in 6-well plates at a density of 10^6 cells/well and were allowed to attach for a few hours before treatment with the tested compounds for 8 h. After treatment, medium was recollected and glucose and lactate concentrations were determined using the Accutrend® Plus analyzer together with Accutrend glucose strips and BM-Lactate strips (Roche Diagnostics, Barcelona, Spain). After calibrating the instrument with glucose and lactate calibration strips, test strips were used to determine glucose and lactate levels through colorimetric oxidase mediator reactions according to the manufacturer’s instructions. The results are expressed as percentage of glucose consumption and percentage of lactate production in relation to untreated cells. Data were averaged from two independent experiments and shown as mean ± SEM.

The test system of data set [15] is A549 cells. It counts as cell-based. As to conditions: A549, 48 h, antioxidant added 1 h before; MTT. As for the experimental part: as §1
In the case of the MTT assay, this technique detects viable cells using the ability of these cells to reduce the yellow tetrazolium MTT to an insoluble colored formazan product. Subsequently, this product was solubilized and analyzed by spectrophotometry. Dead cells cannot reduce the MTT into the colored formazan product. Briefly, 24 h after plating, cells were treated with the tested compounds for 48 h; except in experiments with DNA repair-proficient and -deficient cell lines, in which cells were only exposed for 24 h to drugs and allowed to grow for an additional 48 h in drug-free medium to allow them to repair possible DNA damage induced by the tested drugs. After the treatment period, the medium was removed, the cells were washed once with PBS and 125 μL MTT (1 mg/mL in medium) was added to each well. Plates were incubated for 2–4 h and then 80 μL 20% SDS in 0.02 M HCl was added to each well. Finally, plates were incubated overnight at 37 °C and optical densities were measured at 540 nm using an absorbance spectrophotometer microplate reader.
as §3

In data set [16] the test system is AA8 cells. Put plainly: Comet assay (DNA damage). The note with it: 1 mM, 4 h. It counts as cell-based, Chinese hamster. From the text: The single cell gel electrophoresis assay, also known as comet assay, is a widely used technique for the study of levels of damage in cellular DNA. In this assay, individual cells embedded in agarose are lysed, electrophoresed, stained with a fluorescent dye and examined under an epifluorescence microscope. […] The quantity of DNA present in the tail is indicative of DNA damage. This assay has been described in detail by Singh et al.. We followed this protocol with minor modifications previously described. Briefly, standard slides were immersed in 1% normal melting agarose at 55 °C, left to allow the agarose to solidify and kept at 4 °C until use. Cells were seeded in 6-well plates, allowed to grow for 24 h and then cells were exposed to AzGalp or CTP (positive control) for 4 h. At the end of the treatment, cells were harvested by trypsinization, washed with PBS and resuspended in PBS at a concentration of approximately 1 million cells/mL; 10 µL cell suspension was mixed with 85 μL of low-melting agarose (LMA) at 37 °C and the mixture was quickly added to the slides with the first layer of agarose, spread using a coverslip and kept at 4 °C for 8 min to allow the LMA to solidify. The coverslips were then removed and another layer of 100 μL of LMA at 37 °C was added, covered with a coverslip and allowed to solidify at 4 °C for 8 min. After removing the coverslips, the slides were incubated in the dark for 1 h at 4 °C in a lysis buffer (pH 10.0) containing 0.25 M NaOH, 10% DMSO, 1% Triton X-100, 10 mM Tris-HCl, 100 mM Na2-EDTA and 2.5 M NaCl. Next, alkaline denaturation with electrophoretic buffer (300 mM NaOH and 1 mM Na2-EDTA) was carried out in an electrophoresis chamber for 20 min and then electrophoresis was performed at 1 V/cm for 20 min. […] DNA damage levels were quantified for each cell and expressed as percent of DNA in the tail and as the tail moment (defined as the product of the tail length and the fraction of total DNA in the tail). The results were averaged from two independent experiments and expressed as mean ± SEM.

The subject of data set [17] is UV4 and AA8 cells. Nature of the data set: Clonogenic survival assay. It counts as cell-based, Chinese hamster. The note with it: 3 µM, 24 h, then colonies in drug-free medium. As for the experimental part:
Cell survival after treatment was determined by clonogenic assay. AA8 and UV4 cells were seeded in 6 cm Petri dishes 4 h prior to treatment for 24 h. After that, drugs were removed and cells were allowed to form colonies for eight days. The colonies were then stained with 0.4% methylene blue in methanol for 15 min. Surviving colonies made up of more than 50 cells per colony were counted. Results were represented as percentage of survival referred to untreated cells.

For the molecule `O=c1[nH]cc(F)c(=O)[nH]1` [5-FU, 5-fluorouracil, reference compound], the IC50 in data set [1] is 1.5 ± 0.3 µM; in [2] it was 0.6 ± 0.3 µM; in data set [3], 6.4 ± 0.7 µM; in [4], over 1000 µM; in data set [6], 2.9 ± 1.3 µM; in data set [7], 2.4 ± 0.5 µM. The IC50 in data set [8] is 2.5 ± 0.3 µM; in [9] (Homo sapiens, resazurin assay, read-out: IC50 (Mean ± SEM, µM), BJ-RASV12) it was 3 ± 1.4 µM; in data set [10], 66.3 ± 27 µM; in data set [11], over 1000 µM; in [12], 0.9 ± 0.8 µM; in [13], 5.4 ± 0.7 µM. In addition, the “Viability of leukemia cells” value in [5] (HL60 and NB4, concentrations between 10 and 100 µM) is “higher than 20%”. In [5] (MRC-5 and VH10, concentrations between 10 and 100 µM), the “Viability of normal cells” value is recorded as “showed cytotoxicity against these cells”. Besides, the “Sensitivity of BJ-RASV12 malignant cells relative to BJ-hTERT non-malignant cells” value in data set [9] (resazurin) is given as “did not observe this selectivity”.
As to `O=C(O)C(Cl)Cl` [DCA, dichloroacetate, reference compound], the “Glycolytic activity (glucose consumption and lactate production)” value in data set [14] is “reduced lactate production and glucose consumption”.
With `OO` [H2O2, hydrogen peroxide, reference compound], in data set [15], the “Effect of MnTMPyP on cytotoxicity” value was “decreased in the presence of the three antioxidants”, the “Effect of NAC on cytotoxicity” value is on record as “decreased in the presence of the three antioxidants” and the “Effect of catalase on cytotoxicity” value is “decreased in the presence of the three antioxidants”.
In the case of `COc1cc(C(=O)O)cc(OC)c1O` [Syringic acid, reference compound], the “DNA damage in comet assay” value in [16] is reported as “does not induce DNA damage”.
As for `COc1cc([C@@H]2c3cc4c(cc3[C@@H](O[C@@H]3O[C@@H]5CO[C@@H](C)O[C@H]5[C@H](O)[C@H]3O)[C@H]3COC(=O)[C@H]23)OCO4)cc(OC)c1O` [etoposide, reference compound], the “Cell survival, UV4 versus AA8 (clonogenic assay)” value in [17] is recorded as “UV4 cells were more sensitive”.

For orientation: IC50 means the concentration at which inhibition is half-maximal.

Values taken from PMC8773213, “In Vitro Anticancer Activity and Mechanism of Action of an Aziridinyl Galactopyranoside” (Biomedicines, 2021).
